In article PMC8854719, “Phase 1A/1B dose-escalation and -expansion study to evaluate the safety, pharmacokinetics, food effects and antitumor activity of pamiparib in advanced solid tumours” (British Journal of Cancer, 2021):
Marks after values point to notes of the source that are not given here.

Assay: Safety and tolerability: adverse events, dose-limiting toxicities, MTD, RP2D (Phase 1A/1B)
Format: in vivo
Procedure: This was an open-label, Phase 1, dose-escalation/dose-expansion study, conducted across six study centres in Australia. The dose-escalation phase evaluated twice-daily (BID) and once-daily (QD) dosing, and the dose-expansion phase evaluated the BID RP2D from the dose-escalation phase and food effects (Fig. 1). The food-effects cohort comprised two sequences: fast followed by fed (sequence 1) and fed followed by fast (sequence 2). […] The decision to proceed to the next dose cohort was determined by the Safety Monitoring Committee and followed a modified 3 + 3 escalation scheme. […] When ≥2 DLTs occurred in the first 23 days of a dose level, the next lower dose level was declared the MTD. Safety was monitored and DLTs were assessed in all dose cohorts. […] The food-effects cohort investigated the effects of food on the PK of pamiparib in patients with advanced solid tumours.
The QD dosing regimen was added as an amendment to the protocol with the purpose of exploring the feasibility of a more convenient regimen.
Safety and tolerability were assessed throughout the study by monitoring adverse events (AEs), serious AEs, clinical laboratory measurements and physical examinations. Adverse events were categorised according to their severity (National Cancer Institute Common Terminology Criteria for Adverse Events v4.03) and relationship to the study treatment.

C[C@]12CCCN1CC1=NNC(=O)c3cc(F)cc4[nH]c2c1c34 [pamiparib]
Ascites, AE of any grade (80 mg BID (n = 10)): 1 (10.0) n (%) | Back pain, AE of any grade (80 mg BID (n = 10)): 0 (0.0) n (%) | Constipation, AE of any grade (80 mg BID (n = 10)): 4 (40.0) n (%) | Cough, AE of any grade (80 mg BID (n = 10)): 1 (10.0) n (%) | Decreased appetite, AE of any grade (80 mg BID (n = 10)): 2 (20.0) n (%) | Diarrhoea, AE of any grade (80 mg BID (n = 10)): 1 (10.0) n (%) | Dose-limiting toxicity (80 mg BID (n = 10)): 1 (10.0)^b n (%) | Dyspnoea, AE of any grade (80 mg BID (n = 10)): 0 (0.0) n (%) | Fatigue, AE of any grade (80 mg BID (n = 10)): 4 (40.0) n (%) | Headache, AE of any grade (80 mg BID (n = 10)): 0 (0.0) n (%) | Hypoalbuminemia, AE of any grade (80 mg BID (n = 10)): 0 (0.0) n (%) | Hypomagnesemia, AE of any grade (80 mg BID (n = 10)): 2 (20.0) n (%) | Hypophosphatemia, AE of any grade (80 mg BID (n = 10)): 0 (0.0) n (%) | Increased AST, AE of any grade (80 mg BID (n = 10)): 0 (0.0) n (%) | Muscle spasms, AE of any grade (80 mg BID (n = 10)): 1 (10.0) n (%) | Nausea, AE of any grade (80 mg BID (n = 10)): 8 (80.0) n (%) | Neutropenia, AE of any grade (80 mg BID (n = 10)): 3 (30.0) n (%) | Non-cardiac chest pain, AE of any grade (80 mg BID (n = 10)): 1 (10.0) n (%) | Pain in extremity, AE of any grade (80 mg BID (n = 10)): 0 (0.0) n (%) | Peripheral sensory neuropathy, AE of any grade (80 mg BID (n = 10)): 0 (0.0) n (%) | Pleural effusion, AE of any grade (80 mg BID (n = 10)): 0 (0.0) n (%) | Pyrexia, AE of any grade (80 mg BID (n = 10)): 1 (10.0) n (%) | Treatment-emergent AE (80 mg BID (n = 10)): 10 (100.0) n (%) | Treatment-emergent AE: Grade 3 or higher (80 mg BID (n = 10)): 4 (40.0) n (%) | Treatment-emergent AE: Leading to death (80 mg BID (n = 10)): 1 (10.0) n (%) | Treatment-emergent AE: Leading to dose interruption (80 mg BID (n = 10)): 5 (50.0) n (%) | Treatment-emergent AE: Leading to dose modification (80 mg BID (n = 10)): 5 (50.0) n (%) | Treatment-emergent AE: Leading to dose reduction (80 mg BID (n = 10)): 1 (10.0) n (%) | Treatment-emergent AE: Leading to treatment discontinuation (80 mg BID (n = 10)): 0 (0.0) n (%) | Treatment-emergent AE: Serious (80 mg BID (n = 10)): 3 (30.0) n (%) | Treatment-related AE (80 mg BID (n = 10)): 9 (90.0) n (%) | Treatment-related AE: Grade 3 or higher (80 mg BID (n = 10)): 3 (30.0) n (%) | Treatment-related AE: Leading to death (80 mg BID (n = 10)): 0 (0.0) n (%) | Treatment-related AE: Leading to dose interruption (80 mg BID (n = 10)): 5 (50.0) n (%) | Treatment-related AE: Leading to dose modification (80 mg BID (n = 10)): 5 (50.0) n (%) | Treatment-related AE: Leading to dose reduction (80 mg BID (n = 10)): 1 (10.0) n (%) | Treatment-related AE: Leading to treatment discontinuation (80 mg BID (n = 10)): 0 (0.0) n (%) | Treatment-related AE: Serious (80 mg BID (n = 10)): 1 (10.0) n (%) | Upper respiratory tract infection, AE of any grade (80 mg BID (n = 10)): 5 (50.0) n (%) | Urinary tract infection, AE of any grade (80 mg BID (n = 10)): 2 (20.0) n (%) | Vomiting, AE of any grade (80 mg BID (n = 10)): 2 (20.0) n (%) | Dose-limiting toxicities observed (description) (80 mg BID, n = 1): Grade 2 nausea | Abdominal pain, AE of any grade (120 mg BID (n = 5)): 0 (0.0) n (%) | Anaemia, AE of any grade (120 mg BID (n = 5)): 3 (60.0) n (%) | Ascites, AE of any grade (120 mg BID (n = 5)): 0 (0.0) n (%) | Back pain, AE of any grade (120 mg BID (n = 5)): 1 (20.0) n (%) | Constipation, AE of any grade (120 mg BID (n = 5)): 0 (0.0) n (%) | Cough, AE of any grade (120 mg BID (n = 5)): 1 (20.0) n (%) | Decreased appetite, AE of any grade (120 mg BID (n = 5)): 2 (40.0) n (%) | Diarrhoea, AE of any grade (120 mg BID (n = 5)): 2 (40.0) n (%) | Dose-limiting toxicity (120 mg BID (n = 5)): 2 (40.0)^c n (%) | Dyspnoea, AE of any grade (120 mg BID (n = 5)): 0 (0.0) n (%) | Fatigue, AE of any grade (120 mg BID (n = 5)): 2 (40.0) n (%) | Headache, AE of any grade (120 mg BID (n = 5)): 0 (0.0) n (%) | Hypoalbuminemia, AE of any grade (120 mg BID (n = 5)): 0 (0.0) n (%) | Hypomagnesemia, AE of any grade (120 mg BID (n = 5)): 0 (0.0) n (%) | Hypophosphatemia, AE of any grade (120 mg BID (n = 5)): 1 (20.0) n (%) | Increased AST, AE of any grade (120 mg BID (n = 5)): 1 (20.0) n (%) | Muscle spasms, AE of any grade (120 mg BID (n = 5)): 0 (0.0) n (%) | Nausea, AE of any grade (120 mg BID (n = 5)): 4 (80.0) n (%) | Neutropenia, AE of any grade (120 mg BID (n = 5)): 1 (20.0) n (%) | Non-cardiac chest pain, AE of any grade (120 mg BID (n = 5)): 1 (20.0) n (%) | Pain in extremity, AE of any grade (120 mg BID (n = 5)): 1 (20.0) n (%) | Peripheral sensory neuropathy, AE of any grade (120 mg BID (n = 5)): 0 (0.0) n (%) | Pleural effusion, AE of any grade (120 mg BID (n = 5)): 1 (20.0) n (%)
